Patent publication US7919458B2, “Method of inhibiting prostate cancer cell proliferation” (Scott, Kieran, Francis, priority 2002, dated 2011)
Non-standard residues stand in square brackets, D forms with d. 2Nal = N[C@@H](Cc1ccc2ccccc2c1)C(=O)O

How the values were obtained:
LNCaP = experiment: MTS cell growth assay, unstimulated LNCaP cells; type: cell-based, human; conditions: 72 hours; for Proliferation of unstimulated LNCaP cells: 1-100 nM, endogenous sPLA2-IIA; for Smallest effective dose, LNCaP proliferation: doses 1-100 nM
Description: (§1) FIG. 4. Effect of sPLA2-IIA inhibition on unstimulated prostate cancer cells. (A) The endogenous expression of sPLA2-IIA mRNA was evaluated by RT-PCR in three unstimulated prostate cancer cell lines (LNCaP, DU145 and PC-3) grown in RPMI containing 5% FCS. HPRT was used to as a positive control for RNA integrity and loading. (B) Cells were grown in RPMI with 5% FCS were then treated for 72 hours in the presence and absence of the sPLA2-IIA inhibitor c(2Nap)LS(2Nap)R and cell number determined by MTS assay as described in Materials and Methods. Data are mean±SD of quadruplicate determinations expressed as percentages relative to untreated control cells (100%). LNCaP, closed bars, OD495 untreated cells 0.50±0.03; DU145, open bars, OD495 untreated cells 0.73±0.05; PC-3, hatched bars, OD495 untreated cells, 0.66±0.01. *p<0.05 vs untreated control by one-way ANOVA.
(§2) Cell Lines and Culture. The LNCaP, DU145 and PC3 cell lines were purchased from American Type Culture Collection (Rockville, Md.). All cell cultures were maintained in RPMI 1640 supplemented with 5% FBS for LNCaP and 10% FBS for DU145 and PC3 at 37° C. in a humidified environment of 5% CO2. For experiments with addition of androgens, cells were cultured in RPMI 1640 without phenol red and supplemented with same concentration of charcoal stripped FBS. For experiments described in this article, we used cells between passage 30 and 45 for LNCaP, 65 and 80 for DU145 and 25 and 40 for PC3.
(§3) Cell growth assay. Cells were plated at 1×10^4 per well in 96-well plates with 0.1 ml of FBS-supplemented RPMI. After reaching 70-80% confluence (about 48 hours), the medium was changed to that containing various treatments for 3 days. After treatment, the number of viable cells was determined using the MTS assay (CellTiter 96® AQueous Assay; Promega, Madison, Wis.). In brief, 20 ul of MTS solution was added to each well and cells were incubated for 1 h. The absorbance at 490 nm was measured with an ELISA microplate reader. Each experiment was performed in quadruplicate and repeated at least three times.
(§4) To test the effect of blocking endogenous sPLA2-IIA on cell growth, we firstly determined the basal mRNA levels of sPLA2-IIA in 3 human prostate cancer cell lines. The androgen-independent cell lines PC-3 and DU145 cells were included in the study to also exclude a possible general toxicity of the inhibitors. mRNA encoding sPLA2-IIA was undetectable in DU-145 compared with LNCaP and PC-3 cells (FIG. 4A). We then tested the effect of individual inhibitors cFLSYR (SEQ ID NO: 6) and c(2Nap)LS(2Nap) R on cell growth over a range of doses (1-100 nM). […] The low but effective dosage and its specificity for cell lines containing endogenous sPLA2-IIA only, indicate that non-specific cell toxicity is not likely to explain the inhibitory effect.

human sPLA2-IIA = target: T1, human sPLA2-IIA (Homo sapiens, UniProt P14555); conditions: previously published work (Tseng et al. 1996; Church et al. 2001); cited from earlier work
T1 sequence (P14555 21-144): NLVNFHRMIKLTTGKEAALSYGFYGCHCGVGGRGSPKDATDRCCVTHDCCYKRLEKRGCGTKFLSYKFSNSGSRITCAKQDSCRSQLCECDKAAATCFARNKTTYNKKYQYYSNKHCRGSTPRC

DU145 = experiment: MTS cell growth assay, unstimulated DU145 cells; type: cell-based, human; conditions: 1-100 nM, 72 hours, sPLA2-IIA mRNA undetectable
Description: as §1
Cell Lines and Culture. The LNCaP, DU145 and PC3 cell lines were purchased from American Type Culture Collection (Rockville, Md.). […]
(§5) Cell growth assay. […] After treatment, the number of viable cells was determined using the MTS assay (CellTiter 96® AQueous Assay; Promega, Madison, Wis.). […] The absorbance at 490 nm was measured with an ELISA microplate reader. […]
To test the effect of blocking endogenous sPLA2-IIA on cell growth, we firstly determined the basal mRNA levels of sPLA2-IIA in 3 human prostate cancer cell lines. […]

PC-3 = experiment: MTS cell growth assay, unstimulated PC-3 cells; type: cell-based, human; conditions: 72 hours; for Proliferation of unstimulated PC-3 cells: 1-100 nM, endogenous sPLA2-IIA; for Smallest effective dose, PC-3 proliferation: doses 1-100 nM
Description: as §1, §2, §3, §4

LNCaP cells [1] = experiment: Flow cytometric cell cycle analysis (propidium iodide) of LNCaP cells; type: cell-based, human
Description: (§6) FIG. 2. Effect of exogenous addition of sPLA2-IIA on prostate cell growth. LNCaP cells were grown in RPMI with 5% FCS and treated for 72 hours in media containing (A) increasing concentrations of sPLA2-IIA alone (closed bars) or increasing concentrations of the activity-dead sPLA2-IIA mutant H48Q. (B) a fixed concentration of sPLA2-IIA and increasing concentrations of the sPLA2-IIA inhibitor cFLSYR (SEQ ID NO: 6). Cell number relative to untreated control cells was determined by the MTS assay as described in Materials and Methods. Data are Mean±SD of quadruplicate determinations normalised to 100% for untreated cells. OD495 of unstimulated cells was 0.29±0.06 for sPLA2-IIA and 0.24±0.03 for the sPLA2-IIA mutant experiments in panel A and 0.24±0.03 for panel B. *p<0.05 vs untreated control by one-way ANOVA. Data are representative of three separate experiments. (C). LNCaP cells were grown as above and stimulated for 72 hours with sPLA2-IIA (1 nM) in the absence (dotted lines) and presence (solid lines) of the sPLA2-IIA inhibitor cFLSYR (SEQ ID NO: 6) (100 nM). Cells (1×10^6) were assayed by flow cytometry following treatment with propidium iodide as described in Materials and Methods. Statistical analysis was performed on 10,000 events per sample. Data are representative of three separate experiments.
Flow Cytometric Analysis. Cells were seeded in 25 ml flasks in conditions as described above. Following treatment, trypsinization and cell counting, LNCaP cells (1×10^6) were suspended in 1 mL PBS and incubated with 0.2 mL 0.4% Triton® X-100 for 5 min at R/T in the presence of 50 μL of propidium iodide solution (50 μg/mL) and 20 μL of ribonuclease (10 mg/mL). DNA content per cell was measured by flow cytometry using an FACScalibur® flow cytometer and CellQuest® software (Becton Dickinson, Franklin Lakes, N.J.). Statistical analysis was performed on 10,000 events per sample.
We next used flow cytometric analysis to determine how sPLA2-IIA affects the distribution of LNCaP cells in different phases of the cell cycle. […]

LNCaP cells [2] = experiment: MTS cell growth assay, inhibition of sPLA2-IIA-stimulated LNCaP proliferation; type: cell-based, human; conditions: fixed sPLA2-IIA (1 nM), 72 hours, increasing inhibitor concentrations
Description: as §6, with “LNCaP cells were grown as above and stimulated for 72 hours with sPLA2-IIA (1 nM) in the absence (dotted lines) and presence (solid lines) of the sPLA2-IIA inhibitor cFLSYR (SEQ ID NO: 6) (100 nM). Cells (1×10^6) were assayed by flow cytometry following treatment with propidium iodide as described in Materials and Methods. Statistical analysis was performed on 10,000 events per sample. Data are representative of three separate experiments.” left out
FIG. 3. […] Cell number was determined by the MTS assay as described in Materials and Methods. Data are mean±SD of quadruplicate determinations expressed as percentages relative to untreated control cells (100%) (open bar). […]
as §5

LNCaP cells [3] = experiment: MTS cell growth assay, exogenous sPLA2-IIA added to LNCaP cells; type: cell-based, human; conditions: 72 hours
Description: as §6, with “LNCaP cells were grown as above and stimulated for 72 hours with sPLA2-IIA (1 nM) in the absence (dotted lines) and presence (solid lines) of the sPLA2-IIA inhibitor cFLSYR (SEQ ID NO: 6) (100 nM). Cells (1×10^6) were assayed by flow cytometry following treatment with propidium iodide as described in Materials and Methods. Statistical analysis was performed on 10,000 events per sample. Data are representative of three separate experiments.” left out
as §5
To examine the biological relevance of sPLA2-IIA to prostate cancer cell growth, we treated LNCaP cells with increasing doses of human recombinant sPLA2-IIA and monitored cell growth. […]

c(2NapA)LS(2NapA)R: cyclic peptide where F and Y are substituted with 2-naphthylalanine; sPLA2-IIA inhibitor (cyclo([2Nal]LS[2Nal]R); SMILES CC(C)C[C@@H]1NC(=O)[C@H](Cc2ccc3ccccc3c2)NC(=O)[C@H](CCCNC(=N)N)NC(=O)[C@H](Cc2ccc3ccccc3c2)NC(=O)[C@H](CO)NC1=O)
Proliferation of unstimulated LNCaP cells (LNCaP): significantly decreased
Smallest effective dose, LNCaP proliferation (LNCaP): 1 nM
Inhibition of human sPLA2-IIA in in vitro activity assays (human sPLA2-IIA): significant improvement in potency over linear peptides
Effect on unstimulated DU145 cell growth (DU145): neither of the inhibitors had an effect
Proliferation of unstimulated PC-3 cells (PC-3): significantly decreased
Smallest effective dose, PC-3 proliferation (PC-3): 1 nM

cFLSYR: cyclic peptide FLSYR, sPLA2-IIA inhibitor derived from residues 70-74 of human sPLA2-IIA (cyclic)
Proliferation of unstimulated LNCaP cells (LNCaP): significantly decreased
Smallest effective dose, LNCaP proliferation (LNCaP): 1 nM
Proportion of cells in G1 and G2 phase with sPLA2-IIA plus inhibitor (LNCaP cells [1]; sPLA2-IIA 1 nM plus cFLSYR 100 nM, 72 hours): returned to basal levels
Inhibition of human sPLA2-IIA in in vitro activity assays (human sPLA2-IIA): significant improvement in potency over linear peptides
Effect on sPLA2-IIA-stimulated LNCaP cell number/growth (LNCaP cells [2]): completely blocked
Effect on unstimulated DU145 cell growth (DU145): neither of the inhibitors had an effect
Proliferation of unstimulated PC-3 cells (PC-3): significantly decreased
Smallest effective dose, PC-3 proliferation (PC-3): 1 nM

B1: sPLA2-IIA: human recombinant sPLA2-IIA purified from Chinese hamster ovary cell conditioned media (protein, listed as Homo sapiens)
chain: MKTLLLLAVIMIFGLLQAHGNLVNFHRMIKLTTGKEAALSYGFYGCHCGVGGRGSPKDATDRCCVTHDCCYKRLEKRGCGTKFLSYKFSNSGSRITCAKQDSCRSQLCECDKAAATCFARNKTTYNKKYQYYSNKHCRGSTPRC
Proportion of LNCaP cells in G1 phase (LNCaP cells [1]; sPLA2-IIA containing medium (1 nM), 72 hours, untreated 74%): 62%
Proportion of LNCaP cells in G2/M phase (LNCaP cells [1]; sPLA2-IIA containing medium, in comparison to untreated cells): increase
Lowest dose stimulating LNCaP cell growth (LNCaP cells [3]; MTS assay): 1 nM
Effect of exogenously added protein on LNCaP cell growth (MTS) (LNCaP cells [3]; RPMI with 5% FCS, relative to untreated cells): dose-dependently stimulated LNCaP cell growth
